Assays:
[1] = biological target: T1, 5-hydroxytryptamine receptor 1A (Homo sapiens, UniProt P08908)
T1 sequence (P08908 whole entry): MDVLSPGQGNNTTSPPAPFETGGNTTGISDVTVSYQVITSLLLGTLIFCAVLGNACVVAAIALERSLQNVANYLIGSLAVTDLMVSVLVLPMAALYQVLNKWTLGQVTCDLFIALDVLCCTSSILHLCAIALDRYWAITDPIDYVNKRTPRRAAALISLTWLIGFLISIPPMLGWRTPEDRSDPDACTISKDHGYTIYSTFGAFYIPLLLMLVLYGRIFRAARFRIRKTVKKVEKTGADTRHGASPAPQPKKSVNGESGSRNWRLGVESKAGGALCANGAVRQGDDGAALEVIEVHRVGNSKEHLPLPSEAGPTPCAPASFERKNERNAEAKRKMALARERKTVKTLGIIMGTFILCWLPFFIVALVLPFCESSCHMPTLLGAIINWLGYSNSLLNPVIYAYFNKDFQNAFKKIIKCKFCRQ

[2] = biological target: T2, 5-hydroxytryptamine receptor 1D (Homo sapiens, UniProt P28221)
[3] = biological target: T3, 5-hydroxytryptamine receptor 1B (Homo sapiens, UniProt P28222); experiment: Displacement of [3H]-5-HT from human 5-hydroxytryptamine 1D receptor beta
[4] = biological target: T3, 5-hydroxytryptamine receptor 1B; experiment: Binding affinity towards cloned human 5-hydroxytryptamine 1D receptor was determined using […] as radioligand
[5] = biological target: T3, 5-hydroxytryptamine receptor 1B
[6] = biological target: T2, 5-hydroxytryptamine receptor 1D; experiment: Binding affinity of compound against 5-HT1Dalpha Binding affinity of compound against 5-HT1D alpha receptors in human
[7] = species: Cavia porcellus; experiment: Dissociation constant using guinea pig caudate membrane homogenate.; format: ADME

T3 sequence (P28222 whole entry): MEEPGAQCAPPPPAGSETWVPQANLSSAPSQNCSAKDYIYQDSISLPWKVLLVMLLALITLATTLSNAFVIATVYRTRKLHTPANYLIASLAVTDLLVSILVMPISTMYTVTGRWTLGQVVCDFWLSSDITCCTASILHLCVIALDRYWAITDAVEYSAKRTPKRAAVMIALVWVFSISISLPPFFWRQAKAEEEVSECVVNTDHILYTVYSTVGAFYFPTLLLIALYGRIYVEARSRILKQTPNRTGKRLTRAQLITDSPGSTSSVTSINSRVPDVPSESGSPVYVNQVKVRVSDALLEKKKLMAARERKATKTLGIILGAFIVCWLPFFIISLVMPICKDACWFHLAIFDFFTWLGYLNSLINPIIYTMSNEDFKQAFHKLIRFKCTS
T2 sequence (P28221 whole entry): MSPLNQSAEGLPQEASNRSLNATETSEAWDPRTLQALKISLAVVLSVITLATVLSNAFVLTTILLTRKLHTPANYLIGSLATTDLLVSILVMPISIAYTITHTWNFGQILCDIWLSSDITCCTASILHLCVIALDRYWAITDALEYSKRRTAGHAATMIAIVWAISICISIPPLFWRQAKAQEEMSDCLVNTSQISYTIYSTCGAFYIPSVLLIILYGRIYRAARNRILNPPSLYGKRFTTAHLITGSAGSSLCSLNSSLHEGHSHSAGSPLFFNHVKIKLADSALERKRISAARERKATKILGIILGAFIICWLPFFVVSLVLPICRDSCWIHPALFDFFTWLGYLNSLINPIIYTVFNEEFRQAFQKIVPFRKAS

| SMILES | Ki [1] [nM] | Ki [2] [nM] | other results |
| --- | --- | --- | --- |
| CCc1ccc2[nH]cc(CCN)c2c1 | 20 |  |  |
| CC(C)(C)CCCCCCCOc1ccc2[nH]cc(CCN)c2c1 | 63 |  |  |
| COc1ccc2[nH]c3c(c2c1)CC(N)CC3 (configuration not stated) |  | 1190 | Ki [3]: 342 nM |
| CCCCCCCCCOc1ccc2[nH]c3c(c2c1)CCN(C)C3 |  |  | Ki [4]: > 1000 nM |
| CCCCCCOc1ccc2[nH]c3c(c2c1)CC(N)CC3 (configuration not stated) |  | 1100 | Ki [5]: 188 nM |
| CCCOc1ccc2[nH]cc(CCN)c2c1 | 88 |  |  |
| CCCCCCCCCCCOc1ccc2[nH]cc(CCN)c2c1 | 885 | 69 |  |
| NCCc1c[nH]c2ccc(OCCCCC3CCCCC3)cc12 | 800 | 55 |  |
| COc1ccc2[nH]c3c(c2c1)CC(N(C)C)CC3 (configuration not stated) |  |  | Ki [5]: > 1000 nM |
| CCCCCCCCCOc1ccc2[nH]c3c(c2c1)CC(N)CC3 (configuration not stated) |  |  | Ki [5]: 172 nM; Ki [6]: 2350 nM |
| CC(C)(C)CCCCCCOc1ccc2[nH]cc(CCN)c2c1 | 920 | 16 |  |
| CC(C)CCCCCCOc1ccc2[nH]cc(CCN)c2c1 |  | 42 |  |
| CCCCCCCCCCOc1ccc2[nH]cc(CCN)c2c1 | 575 | 42 |  |
| NC(=O)c1ccc2[nH]c3c(c2c1)CC(N)CC3 (configuration not stated) |  |  | Ki [5]: 10 nM; pKD [7]: 8 |
| CCCCCOc1ccc2[nH]cc(CCN)c2c1 | 42 | 1.5 |  |
| CCCCCCCOc1ccc2[nH]cc(CCN)c2c1 | 38 | 4.9 |  |
| CCCCCCCCC(=O)Oc1ccc2[nH]cc(CCN(C)C)c2c1 | 9.3 |  |  |
| CCCCCCCCCCc1ccc2[nH]c3c(c2c1)CC(N)CC3 (configuration not stated) |  |  | Ki [4]: > 1000 nM |
| CCCCCCCCCOc1ccc2[nH]cc(CCN(C)C)c2c1 | 575 |  |  |
| CCC(=O)Oc1ccc2[nH]cc(CCN(C)C)c2c1 | 405 |  |  |
| CCCCCCCCOc1ccc2[nH]cc(CCN)c2c1 |  | 1.6 |  |
| CCCCCCCCCCc1ccc2[nH]cc(CCN)c2c1 |  | 210 |  |
| CCCCCCCCCOc1ccc2[nH]cc(CCNCCCC)c2c1 | 1550 | 223 |  |
| CCc1ccc2[nH]cc(CCN(C)C)c2c1 | 15 |  |  |
| COc1ccc2[nH]cc(CCN)c2c1 [5-METHOXYTRYPTAMINE] | 3.2 |  |  |
| CC(=O)c1ccc2[nH]cc(CCN)c2c1 [ACETRYPTINE] | 1.3 |  |  |

Reference: ChEMBL document CHEMBL1129297 (J Med Chem, 1996)
